Assay results reported in patent US10544472B2, “Multiplexing transcription factor reporter protein assay process and system” (Attagene, Inc., priority 2014, dated 2020).

What was measured:
AhR response element = assay: Multiplexed Gluc-tag reporter assay, AhR response element; assay type: cell-based
Protocol: (§1) Two separate detection assays were conducted to check the profile of FCICC (6-Formylindolo [3, 2-b] carbazole Indolo [3,2-b] carbazole-6-carboxaldehyde-5, 11-dihydro, an AhR response element inducer, commercially available from Biomol, Plymouth Meeting, Pa.) and IL-1β and TNF-α (NF-κB response element inducer).
(§2) Purified Antibodies were diluted in DPBS with 5% glycerol at 5 μg/ml concentration. […] of diluted antibody solutions were dispensed onto wells of a […] 600 plate (Greiner Bio-One, Monroe, N.C.), and the plate was tapped gently to distribute the antibody solutions evenly on the bottom of the well. The plate was sealed tightly with a PCR sealing film. The antibody plate was stored at 4° C. for one week for antibodies to bind.
At the end of incubation, 200 μl of Blocking Reagent (Attagene, Research Triangle Park, N.C.) was added to the wells to block the unbounded surface, either for 1 hour at room temperature for quick use, or at 4° C. overnight. The plate was washed 4 times with DPBS (Invitrogen, Carlsbad, Calif.) by flicking the solution out into a waste container and then blotted dry briefly on layers of paper towel. […]
(§3) After the incubation, samples were removed by gently flicking and the plate was washed 4 times with DPBS as above. […] The reading was normalized against the minimal promoter driven reporter.

CRE = assay: Multiplexed Gluc-tag reporter assay, CRE; assay type: cell-based; conditions: twelve response elements/Gluc tags, four assays (FIG. 8)
Protocol: as §2
(§4) At the end of incubation, 200 μl of Blocking Reagent (Attagene, Research Triangle Park, N.C.) was added to the wells to block the unbounded surface, either for 1 hour at room temperature for quick use, or at 4° C. overnight. The plate was washed 4 times with DPBS (Invitrogen, Carlsbad, Calif.) by flicking the solution out into a waste container and then blotted dry briefly on layers of paper towel. Target samples were diluted in Binding Reagent (Attagene, Inc., Research Triangle Park, N.C.). After the washing, 100 μl of diluted testing samples were added to the well and incubated at RT for 1 hour with gentle rocking agitation.
as §3

[1] = Stability of coelenterazine substrate in assay reagents; assay type: physicochemical; conditions: over 70 minutes after dilution from methanol stock into assay reagents
Protocol: It is well known that coelenterazine is not stable in aqueous solutions. FIGS. 3C and 3D show the stability profiles of coelenterazine substrate in different assay reagents after being diluted from its methanol stock. A solution of Gluc enzyme was injected at different time points into substrates that were prepared at the same time. The overall signal strength decreased about ten times over 70 minutes and there was no significant difference among these buffers in the stability of the substrate. Once again, the Attagene reagent provided better sensitivity and stronger RLU output.

NF-κB response element = assay: Multiplexed Gluc-tag reporter assay, NF-κB response element; assay type: cell-based
Protocol: as §1, §2, §4, §3

[2] = seven antibodies on 96-well plate, two separate detection assays (FIGS. 7A, 7B)
[3] = twelve response elements/Gluc tags, four assays (FIG. 8)

Molecule	induction of NF-κB (NF-κB response element; [2])	induction of NF-κB (NF-κB response element; [3])	other results
O=Cc1c2[nH]c3ccccc3c2cc2c1[nH]c1ccccc12 [FCICC, 6-Formylindolo [3,2-b] carbazole Indolo [3,2-b] carbazole-6-carboxaldehyde-5, 11-dihydro]	–	–	induction of AhR (AhR response element; [2]): specific induction; induction of AhR (AhR response element; [3]): specific induction
C=C[C@@]1(C)CC(=O)[C@]2(O)[C@@]3(C)[C@@H](O)CCC(C)(C)[C@@H]3[C@H](O)[C@H](OC(C)=O)[C@@]2(C)O1 [FSK]	–	–	induction of CRE (CRE): specific induction
Oc1ccc(Cc2nc3c(Cc4ccccc4)nc(-c4ccc(O)cc4)cn3c2O)cc1 [coelenterazine]	–	–	decrease of overall signal strength [1]: about ten
IL-1β: NF-κB response element inducer	specific induction	specific induction	–
TNF-α	specific induction	specific induction	–
